Consider 20 compounds from patent US20250011299A1, “PYRIDAZINYL AMINO DERIVATIVES AS ALK5 INHIBITORS” (CHIESI FARMACEUTICI S.P.A., priority 2021, published 2025).

One may read the Ki as a measure of affinity in units of concentration, obtained from inhibition or displacement.

This assay addresses T1, human ALK5 (Homo sapiens, UniProt P36897).
T1 construct: human ALK5 (recombinant TGF β1 N-term GST-tagged, 80-end); GST (N); purchased
T1 sequence (P36897 80-503 limits assumed): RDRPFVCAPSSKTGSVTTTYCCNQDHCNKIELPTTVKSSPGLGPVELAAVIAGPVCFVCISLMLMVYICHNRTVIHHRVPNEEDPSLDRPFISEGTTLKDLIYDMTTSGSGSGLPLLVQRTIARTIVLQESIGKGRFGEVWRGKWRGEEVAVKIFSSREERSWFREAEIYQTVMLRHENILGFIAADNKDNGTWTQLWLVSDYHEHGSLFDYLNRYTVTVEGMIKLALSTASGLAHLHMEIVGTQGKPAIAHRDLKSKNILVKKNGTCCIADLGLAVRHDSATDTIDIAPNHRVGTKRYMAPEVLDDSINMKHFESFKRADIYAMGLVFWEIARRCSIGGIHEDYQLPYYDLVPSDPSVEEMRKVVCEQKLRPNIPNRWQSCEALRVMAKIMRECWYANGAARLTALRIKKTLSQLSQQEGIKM
The experiment in a line: ADP-GLO Kinases assay of ALK5 enzymatic activity. Type of assay: biochemical. Conditions: purified recombinant human ALK5, TGFβ1 peptide substrate, pIC50 converted to pKi by Cheng-Prusoff, high ATP protocol (15 μM) for very potent compounds, 25° C. The gist of the method: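 Purified ALK5 preincubated 15 min with compound, then reacted with substrate and ATP; ADP formed read by ADP-Glo luminescence after 120 min or 60 min reaction, all steps at 25° C. 11-point concentration-response; pIC50 converted to pKi via Cheng-Prusoff.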
In general terms: ADP-Glo turns the ADP formed in a reaction into a luminescent signal.
Consider `CN1CCN(CCOc2ccc3c(Nc4cc(-c5cc(Cl)ccc5F)nnc4OCCO)ccnc3c2)CC1` [Example 2, 2-{[6-(5-chloro-2-fluorophenyl)-4-({7-[2-(4-methylpiperazin-1-yl)ethoxy]quinolin-4-yl}amino)pyridazin-3-yl]oxy}ethan-1-ol], for which the Ki was at most 100 pM.
Next, `COc1nnc(-c2cc(Cl)ccc2F)cc1Nc1ccnc(NC(=O)CN2CCN(CC(F)(F)F)CC2)c1` [Example 14, N-(4-{[6-(5-chloro-2-fluorophenyl)-3-methoxypyridazin-4-yl]amino}pyridin-2-yl)-2-[4-(2,2,2-trifluoroethyl)piperazin-1-yl]acetamide]: at most 100 pM; `CN1CCN(CCC(=O)Nc2cc(Nc3cc(-c4cc(Cl)ccc4F)nnc3SCC(O)CO)ccn2)CC1` (centres unmarked) [Example 86, N-(4-{[6-(5-chloro-2-fluorophenyl)-3-[(2,3-dihydroxypropyl)sulfanyl]pyridazin-4-yl]amino}pyridin-2-yl)-3-(4-methylpiperazin-1-yl)propanamide]: at most 100 pM.
Next, `CN1CCCN([C@H]2C[C@@H](C(=O)Nc3cc(Nc4cc(-c5cc(Cl)ccc5F)nnc4SCCO)ccn3)C2)CC1` [Example 155, Cis N-(4-{[6-(5-chloro-2-fluorophenyl)-3-[(2-hydroxyethyl)sulfanyl]pyridazin-4-yl]amino}pyridin-2-yl)-3-(4-methyl-1,4-diazepan-1-yl)cyclobutane-1-carboxamide]: 126 to 316 pM; `CN1CCN(CCC(=O)Nc2cc(Nc3cc(-c4cc(Cl)ccc4F)nnc3OCc3cccc(O)c3)ccn2)CC1` [Example 81, N-(4-{[6-(5-chloro-2-fluorophenyl)-3-[(3-hydroxyphenyl)methoxy]pyridazin-4-yl]amino}pyridin-2-yl)-3-(4-methylpiperazin-1-yl)propanamide]: at most 100 pM; `CSc1nnc(-c2cc(Cl)ccc2F)cc1Nc1ccnc(NC(=O)CCN2CCN(CCN)CC2)c1` [Example 20, 3-[4-(2-aminoethyl)piperazin-1-yl]-N-(4-{[6-(5-chloro-2-fluorophenyl)-3-(methylsulfanyl)pyridazin-4-yl]amino}pyridin-2-yl)propanamide]: at most 100 pM.
For the compound `CN1CCN(CCOc2nnc(-c3cc(Cl)ccc3F)cc2Nc2ccnc(N)c2)CC1` [Example 70, N4-[6-(5-chloro-2-fluorophenyl)-3-[2-(4-methylpiperazin-1-yl)ethoxy]pyridazin-4-yl]pyridine-2,4-diamine], the Ki was 398 to 3160 pM.
As for `CN(C)CCOC(=O)c1cccc(CSc2nnc(-c3cc(Cl)ccc3F)cc2Nc2ccnc3[nH]ccc23)c1` [Example 207, 2-(dimethylamino)ethyl 3-({[6-(5-chloro-2-fluorophenyl)-4-({1H-pyrrolo[2,3-b]pyridin-4-yl}amino)pyridazin-3-yl]sulfanyl}methyl)benzoate], the figure is 126 to 316 pM; as for `CN1CCN(CCC(=O)Nc2cc(Nc3cc(-c4cc(Cl)ccc4F)nnc3OCC(F)F)ccn2)CC1` [Example 52, N-(4-{[6-(5-chloro-2-fluorophenyl)-3-(2,2-difluoroethoxy)pyridazin-4-yl]amino}pyridin-2-yl)-3-(4-methylpiperazin-1-yl)propanamide], 126 to 316 pM.
On to `C[N+](C)(C)CCCOc1nnc(-c2cc(Cl)ccc2F)cc1Nc1ccnc(NC(=O)C2CC2)c1` [Example 58, (3-{[6-(5-chloro-2-fluorophenyl)-4-[(2-cyclopropaneamidopyridin-4-yl)amino]pyridazin-3-yl]oxy}propyl)trimethylazanium chloride], for which the Ki is 398 to 3160 pM.
As to `COCC1(CN(C)c2nnc(-c3cc(Cl)ccc3F)cc2Nc2ccnc(NC(=O)CCN3CCN(C)CC3)c2)CCOC1=O` (single isomer, unassigned) [Example 201, N-(4-{[6-(5-chloro-2-fluorophenyl)-3-({[3-(methoxymethyl)-2-oxooxolan-3-yl]methyl}(methyl)amino)pyridazin-4-yl]amino}pyridin-2-yl)-3-(4-methylpiperazin-1-yl)propanamide], the Ki is at most 100 pM.
Next, `CC(C)OC(=O)C1CCN1c1nnc(-c2cc(Cl)ccc2F)cc1Nc1ccnc(NC(=O)CCN2CCN(C)CC2)c1` (racemic) [Example 150, propan-2-yl 1-[6-(5-chloro-2-fluorophenyl)-4-({2-[3-(4-methylpiperazin-1-yl)propanamido]pyridin-4-yl}amino)pyridazin-3-yl]azetidine-2-carboxylate]: 398 to 3160 pM; `CN(C)CCOc1nnc(-c2cc(Cl)ccc2F)cc1Nc1ccnc(NC(=O)C2CC2)c1` [Example 38, N-(4-{[6-(5-chloro-2-fluorophenyl)-3-[2-(dimethylamino)ethoxy]pyridazin-4-yl]amino}pyridin-2-yl)cyclopropanecarboxamide]: at most 100 pM; `CC(C)OC(=O)C1CCN1c1nnc(-c2cc(Cl)ccc2F)cc1Nc1ccnc(NC(=O)CCN2C[C@@H](C)N[C@@H](C)C2)c1` (mixture of isomers) [Example 184, propan-2-yl 1-[6-(5-chloro-2-fluorophenyl)-4-({2-[3-(3,5-dimethylpiperazin-1-yl)propanamido]pyridin-4-yl}amino)pyridazin-3-yl]azetidine-2-carboxylate]: 398 to 3160 pM.
As to `C[S+]([O-])CCCOc1nnc(-c2cc(Cl)ccc2F)cc1Nc1ccnc(N)c1` (centres unmarked) [Example 57, N4-[6-(5-chloro-2-fluorophenyl)-3-(3-methanesulfinylpropoxy)pyridazin-4-yl]pyridine-2,4-diamine], the Ki is 398 to 3160 pM.
Next, `CN1CCN([C@H]2C[C@@H](C(=O)Nc3cc(Nc4cc(-c5cc(Cl)ccc5F)nnc4SCCO)ccn3)C2)CC1CCF` (mixture of isomers) [Example 172, Cis N-(4-{[6-(5-chloro-2-fluorophenyl)-3-[(2-hydroxyethyl)sulfanyl]pyridazin-4-yl]amino}pyridin-2-yl)-3-[3-(2-fluoroethyl)-4-methylpiperazin-1-yl]cyclobutane-1-carboxamide]: at most 100 pM; `COc1nnc(-c2cc(Cl)ccc2F)cc1Nc1ccnc(N)c1` [Example 48, N4-[6-(5-chloro-2-fluorophenyl)-3-methoxypyridazin-4-yl]pyridine-2,4-diamine]: 126 to 316 pM; `CN1CCN(CC23CC(C(=O)Nc4cc(Nc5cc(-c6cc(Cl)ccc6F)nnc5SCCO)ncn4)(C2)C3)CC1` [Example 182, N-(6-{[6-(5-chloro-2-fluorophenyl)-3-[(2-hydroxyethyl)sulfanyl]pyridazin-4-yl]amino}pyrimidin-4-yl)-3-[(4-methylpiperazin-1-yl)methyl]bicyclo[1.1.1]pentane-1-carboxamide]: 126 to 316 pM.
As for `CN1CCN([C@H]2C[C@@H](C(=O)Nc3cc(Nc4cc(-c5cc(Cl)ccc5F)nnc4SCC4COC(C)(C)O4)ccn3)C2)CC1` (stereo partly drawn) [Example 115, Cis N-(4-{[6-(5-chloro-2-fluorophenyl)-3-{[(2,2-dimethyl-1,3-dioxolan-4-yl)methyl]sulfanyl}pyridazin-4-yl]amino}pyridin-2-yl)-3-(4-methylpiperazin-1-yl)cyclobutane-1-carboxamide], the figure is at most 100 pM; as for `COC(=O)c1sc(Nc2cc(Nc3cc(-c4cc(Cl)ccc4F)nnc3SCCO)ccn2)cc1C1CCN(C)CC1` [Example 92, methyl 5-[(4-{[6-(5-chloro-2-fluorophenyl)-3-[(2-hydroxyethyl)sulfanyl]pyridazin-4-yl]amino}pyridin-2-yl)amino]-3-(1-methylpiperidin-4-yl)thiophene-2-carboxylate], at most 100 pM.
